The values that follow come from publication PMC6320925, “Synthesis, In Vitro Biological Evaluation, and Oxidative Transformation of New Flavonol Derivatives: The Possible Role of the Phenyl-N,N-Dimethylamino Group” (Molecules, 2018).

On the set-up of series [1]: method as in ref 20 (Culhaoglu et al.). The settings on record: ref 20 (Culhaoglu et al.); cited from earlier work.
On the set-up of series [2]: method as in ref 20 (Culhaoglu et al.). The conditions noted are these: ref 20 (Culhaoglu et al.); cited from earlier work. The source holds these as a separate data set.
On the set-up of series [3]: method as in PMID 28383511. The settings on record: cited from earlier work.
A short description of series [4]: FRAP assay (ferric reducing antioxidant power). The conditions noted are these: all tested concentrations (10–200 µM), 30 min incubation. Here is the method: The ferric reducing antioxidant power of the compounds was tested with a modified method of Benzie and Strain [37]. The FRAP reagent consisted of 10 mL acetate buffer (300 mM, pH 3.6), 1 mL TPTZ solution (10 mM) in 40 mM HCl, and 1 mL FeCl3 (10 mM). The mixture was incubated at 37 °C for 15 min and used on the same day. The reaction mixture was prepared by 20 µL of the investigated compound (10, 20, 50, 100, and 200 µM) and 180 µL activated FRAP reagent in a 96-well plate. Following a 30 min incubation period, the absorbance was measured at 593 nm by a Multiskan GO microplate spectrophotometer (Thermo Fisher Scientific, Waltham, MA, USA). Iron (II) sulfate heptahydrate was used as the standard in different concentrations (0.5, 1, 5, 10, 50, 100, and 500 µM). The FRAP values are expressed as µM ferrous equivalents. The experiments were run in duplicate and repeated three times.

Series [5] is described as follows: ORAC assay (oxygen radical absorbance capacity). The settings on record: for ORAC value compared to quercetin: 10 µM; for ORAC value (AUCnet): 2 and 10 µM. Here is the method: The oxygen radical absorbance capacity was evaluated using the ORAC assay. The test was carried out in a black 96-well plate with a black bottom. The stock solutions of 50 nM fluorescein and 180 mM AAPH in phosphate buffer (75 mM, pH 7.00) were prepared freshly and used on the same day. To each well, 20 µL of compound in ACN (2 and 10 µM) was added to 160 µL fluorescein. In the case of blank samples, 20 µL of ACN was added. The plate was incubated for 15 min at 37 °C, and then the 20 µL AAPH solution was rapidly added to each well to initiate the reaction. The fluorescence was monitored at 485 nm excitation and 520 nm emission wavelength for 2 h every 2 min by the FLUOstar OPTIMA (BMG Labtech, Ortenberg, Germany) plate reader. The assay was performed in duplicate and repeated three times. The area under the curve (AUC) was calculated as follows:AUC = 0.5 + (A1/A0) + (A2/A0) + (A3/A0) + ⋯ + (An/A0),(1) where A0 is the fluorescence reading at 0 min and An is the fluorescence reading at n min. The reported ORAC values were calculated by subtracting the blank AUC from the sample AUC and expressed as AUCnet. AUCnet = AUCsample − AUCblank(2)

In series [6] the test system is H9c2 cells. In words: MTT cell viability assay. The settings on record: 20 µM, 12 h. It is filed as cell-based. The protocol: (§1) The MTT assay was used to determine the effect of the investigated compounds on the cell viability. H9c2 cells (ATCC, CRL-1446, LGC Standards GmbH, Wesel, Germany) were seeded into 96-well plates at a density of 6000 cells/well in 200 µL media (DMEM, high glucose, pyruvate from Thermo Fischer Scientific with 10% FBS and supplemented with penicillin and streptomycin) and cultured overnight. The flavonols were added to the cells in 20 µM concentration. After 12 h, 20 μL of MTT solution ([…] in PBS) was added to each well, and the plates were incubated for 4 h. Afterwards, the media was carefully removed and 100 μL DMSO was added to each well to dissolve the formazan crystals. Absorbance was measured at 540 and 630 nm using a Synergy HT plate reader (BioTek, Winooski, VT, USA). The tests were carried out in triplicate and repeated two times.
(Tetrazolium dyes change colour on reduction, which living cells bring about.)

Series [7] can be described thus: ABTS radical scavenging assay. The conditions noted are these: from inhibition percentage at 120 min, concentration range 10–200 µM. The protocol:
To measure the ABTS radical scavenging activity, the work of Sugahara et al. and Re et al. was followed closely, applying few alterations. A mixture containing 7 mM ABTS and 2.45 mM K2S2O8 in water was kept in the dark for 16 h to form ABTS^•+. The working solution was prepared by adding 150 µL of ABTS^•+ solution to 2.9 mL MeOH. Aliquots of 180 µL of this working solution were pipetted into wells containing 20 µL of test samples in DMSO with different concentrations (10, 20, 50, 100, and 200 µM). Absorbance was measured at 737 nm after 10 s mixing using a Multiskan GO microplate spectrophotometer (Thermo Fisher Scientific, Waltham, MA, USA) at 0, 1, 2, 3, 4, 5, 10, 15, 30, 45, 60, 75, 90, 105, and 120 min. Quercetin was used as the standard. The IC50 values were calculated based on the inhibition percentage measured at 120 min. The experiments were carried out in duplicate and repeated three times.

Series [8] can be described thus: DPPH radical scavenging assay. The conditions noted are these: from inhibition percentage at 90 min, concentration range 10–200 µM. The protocol: The method used for the DPPH radical scavenging assay was adopted from Clarke et al., with modifications. A total of 180 µL freshly made 0.2 mM DPPH solution in methanol was added to 20 µL of the investigated compounds in various concentrations (10, 20, 50, 100, and 200 µM) in DMSO. After a gentle, 10-s mixing period, the plate was kept in the dark for 90 min. and the absorbance was read at 515 nm using a Multiskan GO microplate spectrophotometer (Thermo Fisher Scientific, Waltham, MA, USA) at 0, 1, 2, 3, 4, 5, 10, 15, 30, 45, 60, 75, and 90 min. Blanks (20 µL DMSO with 180 µL MeOH) and quercetin standards in the same concentration as the tested compounds were measured simultaneously. The IC50 values were calculated based on the inhibition percentage measured at 90 min. The measurements were performed in duplicate and repeated three times.
(In general: The DPPH test is a chemical assay of radical scavenging.)

A short description of series [9]: Chemical Fenton reaction (biomimetic model of phase I biotransformation). It counts as in vitro ADME. The settings on record: ESI-MS and LC-MS detection. The protocol: The Fenton reaction of the compounds was carried out based on a method reported previously by Csepanyi et al.. The reaction mixture consisted of 400 μL 2.5 mM of the investigated compound in ACN, 50 μL 20 mM FeCl3, 50 μL 20 mM EDTA-Na2, and 500 μL 10 mM ascorbic acid in ACN/H2O (50:50) and 2 μL 30% hydrogen peroxide. The reaction mixture was stirred at room temperature at 700 rpm. Samples were drawn at 2, 24, 72, and 144 h and were diluted with ACN/H2O (50:50) and analyzed immediately by an API 2000 Triple Quadrupole mass spectrometer (Applied Biosystems, Waltham, MA, USA) equipped with a syringe pump with the following parameters: 20 μL/min flow rate, 10 PSI curtain gas, 20 V declustering potential, 4000 V ion spray voltage, 400 V focusing potential, and 200 °C ion source temperature. The positive ion electrospray mass spectra were recorded in the range of m/z 100–500 using Analyst 1.5.1. Software (AB SCIEX, Concord, ON, Canada). In additional experiments, the reaction mixture was separated and analyzed with an LTQ XL linear ion trap mass spectrometer coupled with the Accela LC system (Thermo Fisher Scientific, Waltham, MA, USA). The HPLC separation was performed using a Kinetex XB-C18 2.6 μm column, 0.1% formic acid in water, and ACN with 0.1% formic acid with gradient elution, and the flow rate was set to 300 μL/min. […]

Series [10] is described as follows: MTT cell viability assay. The settings on record: rat, H9c2 cells, read-out: cell viability compared to the control. It counts as cell-based. Here is the method: as §1
On the set-up of series [11]: method as in ref 29 (Deng et al.). The settings on record: ref 29 (Deng et al.); cited from earlier work.

For `CN(C)c1ccc(-c2oc3ccccc3c(=O)c2O)cc1` [4′-N,N-dimethylamino-3-OH-flavon], in [1], the “scavenging of ABTS radicals” value is given as “significant scavenging”. The “scavenging of DPPH radicals” value in series [2] is “significant scavenging”.

Take `CN(C)c1ccc(-c2cc(=O)c3ccccc3o2)cc1` [4′-N,N-dimethylamino-flavon]: in [3], the radical scavenger activity entry is recorded as “good radical scavenger”.

Turning to `COc1ccc(-c2oc3ccc(-c4cccc(N(C)C)c4)cc3c(=O)c2O)cc1OC` [6a, 2-(3,4-Dimethoxyphenyl)-6-[3-(dimethylamino)phenyl]-3-hydroxy-4H-chromen-4-one], the melting point was in the range of 187.7 to 188.8 °C. Besides, in series [4], the FRAP value entry is recorded as “highest FRAP values”. In addition, in [5], the “ORAC value compared to quercetin” value is “comparable to quercetin” and the “ORAC value (AUCnet)” value is recorded as “highest ORAC value”. For the same compound, the “cytotoxic activity (cell viability)” value in series [6] is recorded as “did not exhibit cytotoxic activity”.

Consider `COCc1ccc(-c2ccc3oc(-c4ccc(OC)c(OC)c4)c(O)c(=O)c3c2)cc1` [6b, 2-(3,4-Dimethoxyphenyl)-3-hydroxy-6-[4-(methoxymethyl)phenyl]-4H-chromen-4-one], for which the melting point is 192.8 to 194.3 °C. Also, in [4], the FRAP value entry was “significantly lower ferrous equivalents”. Also, the “ORAC value (AUCnet)” value in series [5] was “highest ORAC value”. The “cytotoxic activity (cell viability)” value in series [6] is “significantly decreased the viability of cells”.

With `COc1ccc(-c2oc3cc(-c4cccc(N(C)C)c4)ccc3c(=O)c2O)cc1OC` [6c, 2-(3,4-Dimethoxyphenyl)-7-[3-(dimethylamino)phenyl]-3-hydroxy-4H-chromen-4-one], the “IC50 ABTS radical cation scavenging” value in series [7] is listed as “lowest IC50 value”. In [8], the “IC50 DPPH scavenging” value is “lowest IC50 value”. In series [4], the FRAP value entry was “highest FRAP values”. The “ORAC value (AUCnet)” value in series [5] is “fourth highest capacity”. In addition, the “cytotoxic activity (cell viability)” value in [6] is on record as “did not exhibit cytotoxic activity”. In addition, the “oxidative transformation products (potential metabolites)” value in series [9] was “two potential metabolites were detected”.

With `COCc1ccc(-c2ccc3c(=O)c(O)c(-c4ccc(OC)c(OC)c4)oc3c2)cc1` [6d, 2-(3,4-Dimethoxyphenyl)-3-hydroxy-7-[4-(methoxymethyl)phenyl]-4H-chromen-4-one], the melting point was in the range of 212.1 to 214.2 °C. Besides, the FRAP value entry in [4] was “significantly lower ferrous equivalents”. Also, the viability at 12 h, 20 µM in series [10] is 46%. For the same compound, the “cytotoxic activity (cell viability)” value in series [6] is on record as “significantly decreased the viability of cells”.

As for `COc1cc(-c2oc3cc(-c4cccc(N(C)C)c4)ccc3c(=O)c2O)cc(OC)c1OC` [6e, 7-[3-(Dimethylamino)phenyl]-3-hydroxy-2-(3,4,5-trimethoxyphenyl)-4H-chromen-4-one], the melting point is 179.5 to 181.8 °C. Further, the “IC50 DPPH scavenging” value in [8] was “lower antioxidant potency”. In addition, the FRAP value entry in series [4] was “highest FRAP values”. In addition, in [5], the “ORAC value compared to quercetin” value is given as “comparable to quercetin” and the “ORAC value (AUCnet)” value is reported as “highest ORAC value”. The “cytotoxic activity (cell viability)” value in series [6] is reported as “did not exhibit cytotoxic activity”.

`COCc1ccc(-c2ccc3c(=O)c(O)c(-c4cc(OC)c(OC)c(OC)c4)oc3c2)cc1` [6f, 3-Hydroxy-7-[4-(methoxymethyl)phenyl]-2-(3,4,5-trimethoxyphenyl)-4H-chromen-4-one] had a melting point of 208.1 to 209.2 °C. The “IC50 DPPH scavenging” value in series [8] is recorded as “lower antioxidant potency”. In addition, in series [4], the FRAP value result is on record as “significantly lower ferrous equivalents”. The “cytotoxic activity (cell viability)” value in series [6] is given as “significantly decreased the viability of cells”.

With `O=c1c(O)c(-c2ccc(O)c(O)c2)oc2cc(O)cc(O)c12` [quercetin], the “FRAP value relative to the methylated form” value in [11] is 650 times.

As a reminder, the melting point is the temperature of the solid-liquid transition. By viability is commonly meant a read-out of living cells in per cent, often relative to untreated cells.
